# Measurements as given in patent US20110082130A1 (LIGAND PHARMACEUTICALS, INC., priority 2006, published 2011).
# pKi: −log10 of the molar value.
# Biological target: T1, chimeric human H3 receptor (Homo sapiens, UniProt Q9Y5N1)
# T1 construct: made in house; host or cells: Sf9 insect cells (baculovirus); P2 membrane preparation
# Test: Chimeric human H3 receptor GTP binding assay (agonist-stimulated GTP-gamma35S binding, Example 7)
# Assay type: biochemical
# Details: Table I; P2 membranes of Sf9 cells, 1 μM histamine as agonist, Ki from IC50 by Cheng-Prusoff
# Outline: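 Sf9 membranes co-expressing chimeric human H3 receptor and heterotrimeric G-protein, 35 μg/tube, in pH 7.4 Tris buffer with 10 μM GDP. Test compounds (10^−10–10^−6 M) competed against 1 μM histamine, […] GTP-gamma35S, 60 min at room temperature. Filter-bound radioactivity counted; IC50 converted to Ki by Cheng-Prusoff. Agonism/inverse agonism tested without histamine (EC50).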
# T1 sequence (Q9Y5N1 with tags, fused parts or gaps): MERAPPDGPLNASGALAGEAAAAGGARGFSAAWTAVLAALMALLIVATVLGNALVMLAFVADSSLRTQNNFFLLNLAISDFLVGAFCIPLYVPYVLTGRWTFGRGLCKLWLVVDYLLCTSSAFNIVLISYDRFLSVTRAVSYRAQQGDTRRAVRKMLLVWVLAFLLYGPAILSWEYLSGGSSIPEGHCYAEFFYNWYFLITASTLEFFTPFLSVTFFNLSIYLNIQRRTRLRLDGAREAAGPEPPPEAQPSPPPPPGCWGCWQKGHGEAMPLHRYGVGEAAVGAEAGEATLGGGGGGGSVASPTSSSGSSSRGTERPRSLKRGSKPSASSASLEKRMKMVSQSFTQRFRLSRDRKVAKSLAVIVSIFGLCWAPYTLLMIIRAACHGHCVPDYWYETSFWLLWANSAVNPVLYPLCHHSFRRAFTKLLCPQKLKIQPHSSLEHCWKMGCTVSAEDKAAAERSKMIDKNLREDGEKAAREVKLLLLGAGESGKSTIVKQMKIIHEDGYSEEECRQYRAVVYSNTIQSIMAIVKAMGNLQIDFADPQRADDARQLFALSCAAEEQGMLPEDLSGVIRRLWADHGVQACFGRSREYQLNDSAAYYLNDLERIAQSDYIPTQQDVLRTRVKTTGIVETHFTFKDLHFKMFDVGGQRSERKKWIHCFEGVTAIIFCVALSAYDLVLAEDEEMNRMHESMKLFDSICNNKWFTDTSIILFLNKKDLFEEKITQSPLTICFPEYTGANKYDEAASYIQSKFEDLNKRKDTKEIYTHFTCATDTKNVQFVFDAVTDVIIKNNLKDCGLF
row,Structure (SMILES),pKi
1,"COc1ccc2c(c1)CCN(CC(=O)N1CCN(C3CCC3)CC1)C2 [Compound 60, 2-[2-(4-cyclobutylpiperazin-1-yl)-2-oxoethyl]-6-methoxy-1,2,3,4-tetrahydroisoquinoline]",> 6.00

# Same assay, conditions: Table II "Ki", symbol *; assay of Example 7
row,Structure (SMILES),pKi
1,"CC(C)C(C)Nc1ccc2c(n1)CCN(CC(=O)N1CCN(C3CCC3)CC1)C2 (stereo not drawn) [Compound 661, 6-[2-(4-cyclobutylpiperazin-1-yl)-2-oxoethyl]-N-(1,2-dimethylpropyl)-5,6,7,8-tetrahydro-1,6-naphthyridin-2-amine]",> 6.00
2,"COc1ccc(-c2ccc3c(c2)CCN(CC(=O)N2CCN(C4CCC4)CC2)C3)cc1 [Compound 520, 2-[2-(4-cyclobutylpiperazin-1-yl)-2-oxoethyl]-6-(4-methoxyphenyl)-1,2,3,4-tetrahydroisoquinoline]",> 6.00
3,"O=C(CN1CCc2nc(NCC3CCCCC3)ccc2C1)N1CCN(C2CCC2)CC1 [Compound 659, 6-[2-(4-cyclobutylpiperazin-1-yl)-2-oxoethyl]-N-(cyclohexylmethyl)-5,6,7,8-tetrahydro-1,6-naphthyridin-2-amine]",> 6.00
4,"COc1ccc2cc(-c3ccc4c(c3)CCN(CC(=O)N3CCN(C5CCC5)CC3)C4)ccc2c1 [Compound 509, 2-[2-(4-cyclobutylpiperazin-1-yl)-2-oxoethyl]-6-(6-methoxy-2-naphthyl)-1,2,3,4-tetrahydroisoquinoline]",> 6.00

# Same assay, conditions: Table II; "*" = Ki in assay of Example 7 less than 1 micromolar
row,Structure (SMILES),pKi
1,"O=C(CN1CCc2nn(-c3cncc(Cl)n3)cc2C1)N1CCN(C2CCC2)CC1 [Compound 267, 2-(6-chloropyrazin-2-yl)-5-[2-(4-cyclobutylpiperazin-1-yl)-2-oxoethyl]-4,5,6,7-tetrahydro-2H-pyrazolo[4,3-c]pyridine]",> 6.00
2,"Cc1ccc(-n2cc3c(n2)CN(CC(=O)N2CCN(C4CCC4)CC2)CC3)nn1 [Compound 264, 6-[2-(4-cyclobutylpiperazin-1-yl)-2-oxoethyl]-2-(6-methylpyridazin-3-yl)-4,5,6,7-tetrahydro-2H-pyrazolo[3,4-c]pyridine]",> 6.00
3,"CC1CN(c2ccc3c(n2)CCN(CC(=O)N2CCN4C(C)CCC[C@H]4C2)C3)CC(C)O1 (stereo in doubt) [Compound 179, 2-(2,6-dimethylmorpholin-4-yl)-6-[2-(6-methyloctahydro-2H-pyrido[1,2-a]pyrazin-2-yl)-2-oxoethyl]-5,6,7,8-tetrahydro-1,6-naphthyridine]",> 6.00
4,"O=C(CN1CCc2sccc2C1)N1CCN(C2CCC2)CC1 [Compound 265, 5-[2-(4-cyclobutylpiperazin-1-yl)-2-oxoethyl]-4,5,6,7-tetrahydrothieno[3,2-c]pyridine]",> 6.00
5,"Cc1ccc(-c2ccc3c(c2)CCN(CC(=O)N2CCN(C4CCCC4C)CC2)C3)nn1 (stereo not drawn) [Compound 190, 2-{2-[4-(2-methylcyclopentyl)piperazin-1-yl]-2-oxoethyl}-6-(6-methylpyridazin-3-yl)-1,2,3,4-tetrahydroisoquinoline]",> 6.00
6,"CC1CCC[C@H]2CN(C(=O)CN3CCc4cc(-c5cncnc5)ccc4C3)CCN12 (stereo in doubt) [Compound 149, 6-methyl-2-[(6-pyrimidin-5-yl-3,4-dihydroisoquinolin-2(1H)-yl)acetyl]octahydro-2H-pyrido[1,2-a]pyrazine]",> 6.00
7,"CC1CCCC2CN(C(=O)CN3CCc4cc(-c5cccnn5)ccc4C3)CCN12 (stereo not drawn) [Compound 165, 6-methyl-2-[(6-pyridazin-3-yl-3,4-dihydroisoquinolin-2(1H)-yl)acetyl]octahydro-2H-pyrido[1,2-a]pyrazine]",> 6.00
8,"CC1CCCC1N1CCN(C(=O)CN2CCc3cc(-c4cccnn4)ccc3C2)CC1 (stereo not drawn) [Compound 191, 2-{2-[4-(2-methylcyclopentyl)piperazin-1-yl]-2-oxoethyl}-6-pyridazin-3-yl-1,2,3,4-tetrahydroisoquinoline]",> 6.00
9,"O=C(CN1CCc2nc(-c3cncnc3)ccc2C1)N1CCN(C2CCC2)CC1 [Compound 171, 6-[2-(4-cyclobutylpiperazin-1-yl)-2-oxoethyl]-2-pyrimidin-5-yl-5,6,7,8-tetrahydro-1,6-naphthyridine]",> 6.00
10,"O=C(CN1CCc2cc(-c3cncnc3)ccc2C1)N1CCN2CCCCC2C1 (stereo not drawn) [Compound 151, 2-[(6-pyrimidin-5-yl-3,4-dihydroisoquinolin-2(1H)-yl)acetyl]octahydro-2H-pyrido[1,2-a]pyrazine]",> 6.00
11,"O=C(CN1CCc2nc(-c3cccnc3)ncc2C1)N1CCN(C2CCC2)CC1 [Compound 143, 6-[2-(4-cyclobutylpiperazin-1-yl)-2-oxoethyl]-2-pyridin-3-yl-5,6,7,8-tetrahydropyrido[4,3-d]pyrimidine]",> 6.00
12,"CCN(C)c1ccc2c(n1)CCN(CC(=O)N1CCN(C3CCC3)CC1)C2 [Compound 245, 6-[2-(4-cyclobutylpiperazin-1-yl)-2-oxoethyl]-N-ethyl-N-methyl-5,6,7,8-tetrahydro-1,6-naphthyridin-2-amine]",> 6.00
13,"N#Cc1nc2c(s1)CN(CC(=O)N1CCN(C3CCC3)CC1)CC2 [Compound 102, 5-[2-(4-cyclobutylpiperazin-1-yl)-2-oxoethyl]-4,5,6,7-tetrahydro[1,3]thiazolo [5,4-c]pyridine-2-carbonitrile]",> 6.00
14,"CC(=O)c1ccc2c(c1)CCN(CC(=O)N1CCN(C3CCCC3C)CC1)C2 (stereo not drawn) [Compound 206, 1-(2-{2-[4-(2-methylcyclopentyl)piperazin-1-yl]-2-oxoethyl}-1,2.3,4-tetrahydroisoquinolin-6-yl)ethanone]",> 6.00
15,"CC1CN(C(=O)CN2CCc3nc(Cl)sc3C2)CCN1C1CCC1 (stereo not drawn) [Compound 109, 2-chloro-5-[2-(4-cyclobutyl-3-methylpiperazin-1-yl)-2-oxoethyl]-4,5,6,7-tetrahydro[1,3] thiazolo [5,4-c]pyridine]",> 6.00
16,"O=C(CN1CCc2nc(N3CCOCC3)ncc2C1)N1CCN(C2CCC2)CC1 [Compound 139, 6-[2-(4-cyclobutylpiperazin-1-yl)-2-oxoethyl]-2-morpholin-4-yl-5,6,7,8-tetrahydropyrido[4,3-d]pyrimidine]",> 6.00

# Same assay, conditions: Table II; assay of Example 7
row,Structure (SMILES),pKi
1,"N#Cc1ccc(-n2cc3c(n2)CCN(CC(=O)N2CCN(C4CCC4)CC2)C3)nc1 [Compound 687, 6-{5-[2-(4-cyclobutylpiperazin-1-yl)-2-oxoethyl]-4,5,6,7-tetrahydro-2H-pyrazolo[4,3-c]pyridin-2-yl}nicotinonitrile]",> 6.00

# Same assay, conditions: assay of Example 7; "*" in Ki of Table II
row,Structure (SMILES),pKi
1,"CCOc1ccccc1-c1nc2c(s1)CN(CC(=O)N1CCN(C3CCC3)CC1)CC2 [Compound 341, 5-[2-(4-cyclobutylpiperazin-1-yl)-2-oxoethyl]-2-(2-ethoxyphenyl)-4,5,6,7-tetrahydro[1,3]thiazolo [5,4-c]pyridine]",> 6.00
2,"CS(=O)(=O)c1ccc(-c2ccc3c(c2)CCN(CC(=O)N2CCN(C4CCCC4)CC2)C3)cc1 [Compound 390, 2-[2-(4-cyclopentylpiperazin-1-yl)-2-oxoethyl]-6-[4-(methylsulfonyl)phenyl]-1,2,3,4-tetrahydroisoquinoline]",> 6.00
3,"Cc1cc(C)c(-c2nc3c(s2)CN(CC(=O)N2CCN(C4CCC4)CC2)CC3)c(C)c1 [Compound 366, 5-[2-(4-cyclobutylpiperazin-1-yl)-2-oxoethyl]-2-mesityl-4,5,6,7-tetrahydro[1,3]thiazolo [5,4-c]pyridine]",> 6.00
4,"CC(C)c1ccccc1-c1nc2c(s1)CN(CC(=O)N1CCN(C3CCC3)CC1)CC2 [Compound 362, 5-[2-(4-cyclobutylpiperazin-1-yl)-2-oxoethyl]-2-(2-isopropylphenyl)-4,5,6,7-tetrahydro[1,3]thiazolo [5,4-c]pyridine]",> 6.00
5,"Cc1ccc(-n2ncc3c2CN(CC(=O)N2CCN(C4CCC4)CC2)CC3)nn1 [Compound 284, 6-[2-(4-cyclobutylpiperazin-1-yl)-2-oxoethyl]-1-(6-methylpyridazin-3-yl)-4,5,6,7-tetrahydro-1H-pyrazolo[3,4-c]pyridine]",> 6.00
6,"O=C(CN1CCc2nc(-c3ccc(OC(F)(F)F)cc3)sc2C1)N1CCN(C2CCC2)CC1 [Compound 316, 5-[2-(4-cyclobutylpiperazin-1-yl)-2-oxoethyl]-2-[4-(trifluoromethoxy)phenyl]-4,5,6,7-tetrahydro[1,3]thiazolo [5,4-c]pyridine]",> 6.00
7,"O=C(CN1CCc2nc(-c3ccc(C(F)(F)F)cc3)sc2C1)N1CCN(C2CCC2)CC1 [Compound 369, 5-[2-(4-cyclobutylpiperazin-1-yl)-2-oxoethyl]-2-[4-(trifluoromethyl)phenyl]-4,5,6,7-tetrahydro[1,3]thiazolo [5,4-c]pyridine]",> 6.00
8,"Cc1cc(C)cc(-c2nc3c(s2)CN(CC(=O)N2CCN(C4CCC4)CC2)CC3)c1 [Compound 310, 5-[2-(4-cyclobutylpiperazin-1-yl)-2-oxoethyl]-2-(3,5-dimethylphenyl)-4,5,6,7-tetrahydro[1,3]thiazolo [5,4-c]pyridine]",> 6.00
9,"Cc1ccc(-c2nc3c(s2)CN(CC(=O)N2CCN(C4CCC4)CC2)CC3)cc1 [Compound 305, 5-[2-(4-cyclobutylpiperazin-1-yl)-2-oxoethyl]-2-(4-methylphenyl)-4,5,6,7-tetrahydro[1,3]thiazolo [5,4-c]pyridine]",> 6.00
10,"CC(C)n1cc(-c2ccc3c(c2)CCN(CC(=O)N2CCN(C4CCC4)CC2)C3)ccc1=O [Compound 282, 5-{2-[2-(4-cyclobutylpiperazin-1-yl)-2-oxoethyl]-1,2,3,4-tetrahydroisoquinolin-6-yl}-1-isopropylpyridin-2(1H)-one]",> 6.00
11,"COc1ccc(OC)c(-c2nc3c(s2)CN(CC(=O)N2CCN(C4CCC4)CC2)CC3)c1 [Compound 339, 5-[2-(4-cyclobutylpiperazin-1-yl)-2-oxoethyl]-2-(2,5-dimethoxyphenyl)-4,5,6,7-tetrahydro[1,3]thiazolo [5,4-c]pyridine]",> 6.00
